The record followed here is patent US12559454B2, “Benzenesulfonamide derivatives and uses thereof” (2692372 Ontario, Inc., priority 2019, dated 2026).

In one experiment the target is BTK (Homo sapiens, UniProt Q06187). The experiment in a line: In vitro BTK inhibition (no preincubation). Format: biochemical. The settings on record: Table 17.
In another experiment the test system is MV4-11 cells. The experiment in a line: CellTiter-Blue cell viability, MV-4-11. Format: cell-based. The settings on record: Homo sapiens, 72 hrs exposure. As for the experimental part:
(§1) Anti-cancer efficacy of exemplary compounds of this application was assessed in vitro in different cancer cell lines. Cell viability was examined following treatment at various concentration of inhibitor (0.097656-50 μM) using a cell Titer-Blue cell viability assay. 1×10^4 cells (NHF, MV4-11, K562 and MOLM-13 cells)/well were plated in 96-well assay plates in culture medium. All cells were grown in DMEM, IMDM and RPMI-1640 supplemented with 10% FBS. After 24 hrs, test compounds and vehicle controls were added to appropriate wells so the final volume was 100 μl in each well. The cells were cultured for the desired test exposure period (72 hrs) at 37° C. and 5% CO2. The assay plates were removed from 37° C. incubator and 20 μl/well of CellTiter-Blue® Reagent was added. The plates were incubated using standard cell culture conditions for 1-4 hours and the plates were shaken for 10 seconds and record fluorescence at 560/590 nm.

A further experiment relates to K562 cells. The experiment in a line: CellTiter-Blue cell viability, K562. The settings on record: Homo sapiens, 72 hrs exposure. Format: cell-based. As for the experimental part:
as §1
In general terms: Alamar Blue is a resazurin reagent that responds to reducing activity.

Another experiment concerns tubulin. Nature of the experiment: Tubulin polymerization assay. Type of experiment: biochemical. The settings on record: for % Inhibition: Vmax normalized to tubulin only control; for % D.O.P.: degree of polymerization relative to tubulin control. The method, then: A96-well half-area clear flat-bottom microplate (Corning® #3697) was pre-heated in a plate reader (Cytation 3, BioTek) at 37° C. for 15 minutes prior to the start of each assay. Tubulin polymerization buffer (80 mM PIPES pH 6.9, 2 mM MgCl2, 0.5 mM EGTA, 15% glycerol, 1 mM GTP) was prepared from stock solutions and placed on ice. Inhibitors were prepared to M concentrations in buffer (80 mM PIPES pH 6.9, 2 mM MgCl2, 0.5 mM EGTA, 5% DMSO) from DMSO stock solutions. After the assay plate was pre-warmed, 10 μL of inhibitor or buffer control was added to selected wells. Every assay contained a tubulin only negative control for normalization of data, and a batabulin positive control. The assay plate was incubated at 37° C. for 3 minutes. During this time, a frozen aliquot of tubulin (10 mg/mL) in buffer (80 mM PIPES pH 6.9, 2 mM MgCl2, 0.5 mM EGTA) was defrosted by placing in a room temperature water bath. Once thawed, 200 μL of tubulin was mixed with 420 μL ice cold tubulin polymerization buffer (3 mg/mL tubulin in 80 mM PIPES, pH 6.9, 2 mM MgCl2, 0.5 mM EGTA, 1 mM GTP, 10.2% glycerol). To a 96-well plate on ice, aliquots of 100 μL tubulin was added to each well. From this plate, 90 μL of tubulin was immediately pipetted into all sample wells of the warmed assay plate using a multi-channel pipette. The assay plate was immediately put in the reader at 37° C. and shook for 5 s with orbital shaking at medium speed. The reader recorded the absorbance at 340 nm every 15 s for 30 min.
The resulting absorbance curves were normalized by subtracting each data point by the absorbance at time 0.
The largest change in absorbance over the assay time course was also recorded and related to the tubulin control as the % degree of polymerization (% D.O.P.).

In another experiment the test system is MOLM-13 cells. Nature of the experiment: CellTiter-Blue cell viability, MOLM-13. Type of experiment: cell-based. The settings on record: Homo sapiens, 72 hrs exposure. The method, then: as §1

Molecules are shown by their SMILES.

Chain of BTK (Q06187 whole entry, species assumed): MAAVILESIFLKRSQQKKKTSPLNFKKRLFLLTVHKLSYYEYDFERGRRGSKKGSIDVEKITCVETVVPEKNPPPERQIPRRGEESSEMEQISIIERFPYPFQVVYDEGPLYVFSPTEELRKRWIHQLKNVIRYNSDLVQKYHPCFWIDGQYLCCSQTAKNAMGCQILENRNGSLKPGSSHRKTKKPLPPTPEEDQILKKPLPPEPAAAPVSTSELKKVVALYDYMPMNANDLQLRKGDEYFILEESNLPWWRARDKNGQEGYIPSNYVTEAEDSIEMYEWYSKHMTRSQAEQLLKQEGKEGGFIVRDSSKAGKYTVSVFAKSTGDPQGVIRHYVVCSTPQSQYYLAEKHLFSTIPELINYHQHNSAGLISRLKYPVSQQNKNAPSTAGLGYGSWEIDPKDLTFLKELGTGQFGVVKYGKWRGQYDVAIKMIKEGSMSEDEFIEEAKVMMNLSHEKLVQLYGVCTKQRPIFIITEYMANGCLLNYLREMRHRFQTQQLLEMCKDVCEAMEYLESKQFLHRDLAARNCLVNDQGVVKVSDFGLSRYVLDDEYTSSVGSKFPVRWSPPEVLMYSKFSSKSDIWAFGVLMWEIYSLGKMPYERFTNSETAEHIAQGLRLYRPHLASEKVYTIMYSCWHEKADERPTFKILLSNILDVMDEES

With `Nc1ncnc2c1c(-c1ccc(Oc3ccccc3)cc1)nn2CCCNS(=O)(=O)c1c(F)c(F)c(F)c(F)c1F` [Compound 3A-10, N-(3-(4-amino-3-(4-phenoxyphenyl)-1H-pyrazolo[3,4-d]pyrimidin-1-yl)propyl)-2,3,4,5,6-pentafluorobenzenesulfonamide], the half-maximal inhibitory concentration (IC50) (usually the concentration that inhibits the measured activity by half) on BTK was in the range of 0.0001 to 0.01 µM.

`Nc1ncnc2c1c(-c1ccc(Oc3ccccc3)cc1)nn2C1CN(S(=O)(=O)c2c(F)c(F)c(F)c(F)c2F)C1` [Compound 3A-24, 1-(1-((perfluorophenyl)sulfonyl)azetidin-3-yl)-3-(4-phenoxyphenyl)-1H-pyrazolo[3,4-d]pyrimidin-4-amine]: on BTK, the half-maximal inhibitory concentration (IC50) lay in the range of 0.0001 to 0.01 µM.

With `COc1ccc(NS(=O)(=O)c2c(F)c(F)c(F)c(F)c2OC(C)C)cc1F` [Compound I-61, 2,3,4,5-tetrafluoro-N-(3-fluoro-4-methoxyphenyl)-6-isopropoxybenzenesulfonamide], the IC50 in the experiment on MV4-11 cells, with K562 cells and in the experiment on MOLM-13 cells was 0.1 to 1 µM in each case. Besides, the “% Inhibition” value in the experiment on tubulin was “A (<10%)”. Also, the “% D.O.P.” value in the experiment with tubulin is listed as “A (>85%)”.

As to `COc1ccc(NS(=O)(=O)c2c(F)c(F)c(F)c(F)c2OCc2ccccc2)cc1F` [Compound I-62, 2-(benzyloxy)-3,4,5,6-tetrafluoro-N-(3-fluoro-4-methoxyphenyl)benzenesulfonamide], the 50% inhibitory concentration (IC50) in the experiment with MV4-11 cells, with K562 cells and in the experiment with MOLM-13 cells was over 10 µM throughout. In addition, in the experiment with tubulin, the “% Inhibition” value is “A (<10%)”.

Consider `COc1ccc(NS(=O)(=O)c2c(F)c(F)c(F)c(F)c2OC)cc1F` [Compound I-64, 2,3,4,5-tetrafluoro-N-(3-fluoro-4-methoxyphenyl)-6-methoxybenzenesulfonamide], for which the IC50 with MV4-11 cells was at most 0.1 µM; in the experiment with K562 cells, 0.1 to 1 µM; with MOLM-13 cells it was 0.1 to 1 µM. Besides, the “% Inhibition” value with tubulin is listed as “A (<10%)”. The “% D.O.P.” value with tubulin is on record as “A (>85%)”.

With `COc1ccc(NS(=O)(=O)c2c(F)c(F)c(F)c(F)c2OCC(F)F)cc1F` [Compound I-67, 2-(2,2-difluoroethoxy)-3,4,5,6-tetrafluoro-N-(3-fluoro-4-methoxyphenyl)benzenesulfonamide], the half-inhibitory concentration (IC50) in the experiment with MV4-11 cells, in the experiment with K562 cells and in the experiment on MOLM-13 cells was 0.1 to 1 µM each time. The “% Inhibition” value in the experiment with tubulin is “C (>20%)”. Further, the “% D.O.P.” value with tubulin is given as “B (< 85%)”.

As to `COc1ccc(NS(=O)(=O)c2c(F)c(F)c(F)c(F)c2OCC(F)(F)F)cc1F` [Compound I-68, 2,3,4,5-tetrafluoro-N-(3-fluoro-4-methoxyphenyl)-6-(2,2,2-trifluoroethoxy)benzenesulfonamide], the results for the IC50 in the experiment with MV4-11 cells, in the experiment on K562 cells and with MOLM-13 cells were 0.1 to 1 µM, 0.1 to 1 µM and 1 to 10 µM, respectively. For the same molecule, the “% Inhibition” value with tubulin is on record as “B (10-20%)”. For the same molecule, the “% D.O.P.” value with tubulin is reported as “B (< 85%)”.

Turning to `COc1ccc(NS(=O)(=O)c2c(F)c(F)c(F)c(F)c2OCC2CC2)cc1F` [Compound I-71, 2-(cyclopropylmethoxy)-3,4,5,6-tetrafluoro-N-(3-fluoro-4-methoxyphenyl)benzenesulfonamide], the IC50 is 1 to 10 µM in the experiment with MV4-11 cells, 1 to 10 µM in the experiment with K562 cells and over 10 µM in the experiment with MOLM-13 cells. Also, the “% Inhibition” value in the experiment with tubulin is “A (<10%)”. Moreover, the “% D.O.P.” value with tubulin is recorded as “A (>85%)”.

For the molecule `COc1ccc(NS(=O)(=O)c2c(F)c(F)c(F)c(F)c2OC2COC2)cc1F` [Compound I-72, 2,3,4,5-tetrafluoro-N-(3-fluoro-4-methoxyphenyl)-6-(oxetan-3-yloxy)benzenesulfonamide], the IC50 in the experiment on MV4-11 cells was 0.1 to 1 µM; in the experiment with K562 cells, over 10 µM; in the experiment with MOLM-13 cells, over 10 µM. The “% Inhibition” value in the experiment on tubulin is “A (<10%)”. In addition, in the experiment on tubulin, the “% D.O.P.” value was “A (>85%)”.

For the molecule `COc1ccc(NS(=O)(=O)c2c(F)c(F)c(F)c(F)c2OCC2COC2)cc1F` [Compound I-73, 2,3,4,5-tetrafluoro-N-(3-fluoro-4-methoxyphenyl)-6-(oxetan-3-ylmethoxy)benzenesulfonamide], the IC50 with MV4-11 cells is 0.1 to 1 µM; in the experiment with K562 cells it was 1 to 10 µM; in the experiment on MOLM-13 cells, 1 to 10 µM. Moreover, the “% Inhibition” value with tubulin is “A (<10%)”. Further, the “% D.O.P.” value in the experiment on tubulin is “A (>85%)”.

For the molecule `COc1ccc(NS(=O)(=O)c2c(F)c(F)c(F)c(F)c2OCC(C)(C)C)cc1F` [Compound I-74, 2,3,4,5-tetrafluoro-N-(3-fluoro-4-methoxyphenyl)-6-(neopentyloxy)benzenesulfonamide], the half-inhibitory concentration (IC50) in the experiment with MV4-11 cells, in the experiment with K562 cells and in the experiment with MOLM-13 cells was over 10 µM throughout. In addition, the “% Inhibition” value in the experiment with tubulin is “A (<10%)”. Moreover, in the experiment on tubulin, the “% D.O.P.” value is “A (>85%)”.

Consider `COc1ccc(NS(=O)(=O)c2c(F)c(F)c(F)c(F)c2Oc2ccc(O)cc2)cc1F` [Compound I-77, 2,3,4,5-tetrafluoro-N-(3-fluoro-4-methoxyphenyl)-6-(4-hydroxyphenoxy)benzenesulfonamide], for which the half-maximal inhibitory concentration (IC50) with MV4-11 cells is 1 to 10 µM; with K562 cells it was over 10 µM; in the experiment on MOLM-13 cells it was over 10 µM. In addition, in the experiment with tubulin, the “% Inhibition” value is “A (<10%)”. In addition, in the experiment with tubulin, the “% D.O.P.” value is “A (>85%)”.

On to `COc1ccc(NS(=O)(=O)c2c(F)c(F)c(F)c(F)c2Oc2ccc(OC)c(F)c2)cc1F` [Compound I-78, 2,3,4,5-tetrafluoro-6-(3-fluoro-4-methoxyphenoxy)-N-(3-fluoro-4-methoxyphenyl)benzenesulfonamide], for which the IC50 with MV4-11 cells, with K562 cells and in the experiment on MOLM-13 cells was 1 to 10 µM each time. For the same molecule, the “% Inhibition” value in the experiment on tubulin is given as “B (10-20%)”. For the same molecule, in the experiment on tubulin, the “% D.O.P.” value is “B (< 85%)”.

As to `COc1ccc(Oc2c(F)c(F)c(F)c(F)c2S(=O)(=O)Nc2ccc(OC)c(F)c2)cc1` [Compound I-79, 2,3,4,5-tetrafluoro-N-(3-fluoro-4-methoxyphenyl)-6-(4-methoxyphenoxy)benzenesulfonamide], the IC50 in the experiment with MV4-11 cells was 1 to 10 µM; in the experiment with K562 cells, over 10 µM; with MOLM-13 cells, 1 to 10 µM. For the same molecule, in the experiment on tubulin, the “% Inhibition” value is “A (<10%)”. Moreover, the “% D.O.P.” value in the experiment with tubulin is recorded as “A (>85%)”.

For the molecule `COc1ccc(NS(=O)(=O)c2c(F)c(F)c(F)c(F)c2OCF)cc1F` [Compound I-83, 2,3,4,5-tetrafluoro-N-(3-fluoro-4-methoxyphenyl)-6-(fluoromethoxy)benzenesulfonamide], the concentration for half-maximal inhibition (IC50) in the experiment with MV4-11 cells, in the experiment with K562 cells and in the experiment on MOLM-13 cells was at most 0.1 µM throughout. Also, the “% Inhibition” value in the experiment on tubulin is recorded as “C (>20%)”. For the same molecule, the “% D.O.P.” value with tubulin is recorded as “B (< 85%)”.

On to `COc1ccc(NS(=O)(=O)c2c(F)c(F)c(F)c(F)c2C(=O)C(F)(F)F)cc1F` [Compound I-90, 2,3,4,5-tetrafluoro-N-(3-fluoro-4-methoxyphenyl)-6-(2,2,2-trifluoroacetyl)benzenesulfonamide], for which the IC50 with MV4-11 cells is 1 to 10 µM; in the experiment on K562 cells, over 10 µM; with MOLM-13 cells, 1 to 10 µM. The “% Inhibition” value with tubulin is “A (<10%)”. For the same molecule, in the experiment on tubulin, the “% D.O.P.” value is listed as “A (>85%)”.

In the case of `COc1ccc(NS(=O)(=O)c2cc(F)c(F)c(F)c2F)cc1F` [Compound I-93, 2,3,4,5-tetrafluoro-N-(3-fluoro-4-methoxyphenyl)benzenesulfonamide], the IC50 in the experiment on MV4-11 cells was at most 0.1 µM; in the experiment with K562 cells, at most 0.1 µM; in the experiment on MOLM-13 cells, 0.1 to 1 µM. For the same molecule, the “% Inhibition” value in the experiment with tubulin is on record as “C (>20%)”. In the experiment on tubulin, the “% D.O.P.” value is “B (< 85%)”.
